These results are taken from patent US6063788A, “Bicyclic-fused pyridines” (Bayer Aktiengesellschaft, priority 1996, dated 2000).

A word on the IC50: it is the concentration needed to halve the response being measured. Read a high IC50 as a need for much substance. One may read the % Inhibition as the relative decrease from the control value, in per cent. The low end stands for a weak effect, the high end for a strong effect.

The target in assay [1] is T1, cholesterol ester transfer protein (CETP) (Homo sapiens, UniProt P11597).
T1 construct: CETP is obtained from human plasma in partially purified form; from tissue; host or cells: human plasma (partially purified by centrifugation, phenyl-Sepharose, CM-Sepharose, Mono Q)
T1 sequence (P11597 18-493): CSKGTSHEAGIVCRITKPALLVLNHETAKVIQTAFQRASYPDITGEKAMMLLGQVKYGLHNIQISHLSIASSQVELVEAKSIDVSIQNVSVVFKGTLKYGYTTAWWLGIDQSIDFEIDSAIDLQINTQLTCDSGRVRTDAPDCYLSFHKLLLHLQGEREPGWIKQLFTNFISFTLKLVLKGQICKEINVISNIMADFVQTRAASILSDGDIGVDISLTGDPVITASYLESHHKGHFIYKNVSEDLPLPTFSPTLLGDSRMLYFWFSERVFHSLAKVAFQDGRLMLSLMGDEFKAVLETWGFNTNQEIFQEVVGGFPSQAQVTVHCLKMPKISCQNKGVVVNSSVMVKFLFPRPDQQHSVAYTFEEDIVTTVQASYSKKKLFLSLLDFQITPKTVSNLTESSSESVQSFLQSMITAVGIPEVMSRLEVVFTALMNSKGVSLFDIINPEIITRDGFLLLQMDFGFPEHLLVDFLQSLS
The assay can be described thus: CETP inhibition testing (transfer of 3H-cholesterol ester from HDL to biotinylated LDL). The assay is classed as biochemical. The following applies: substance concentration at which transfer is reduced by half; 18 h at 37° C. As to the method: CETP is obtained from human plasma in partially purified form by differential centrifugation and column chromatography and used for the test. To this end, human plasma is adjusted to a density of 1.21 g per ml using NaBr and centrifuged at 4° C. for 18 h at 50,000 rpm. The bottom fraction (d>1.21 g/ml) is applied to a Sephadex®phenyl-sepharose 4B (Pharmacia) column, washed with 0.15 M NaCl/0.001 M trisHCl pH 7.4 and then eluted with distilled water. The CETP-active fractions are pooled, dialysed against 50 mM Na acetate pH 4.5 and applied to a CM-Sepharose® (Pharmacia) column. The column is then eluted using a linear gradient (0-1 M NaCl). The pooled CETP fractions are dialysed against 10 mM tris HCl pH 7.4 and then further purified by chromatography on a Mono Q® column (Pharmacia).
Obtainment of radiolabelled HDL
50 ml of fresh human EDTA plasma are adjusted to a density of 1.12 using NaBr and centrifuged at 50,000 rpm for 18 h at 4° C. in a Ty 65 rotor. The upper phase is used to obtain cold LDL. The lower phase is dialysed against 3×4 l of PDB buffer (10 mM tris/HCl pH 7.4, […], 1 mM EDTA, 0.02% NaN3). 20 μl of ^3 H-cholesterol (Dupont NET-725; 1 μC/μl dissolved in ethanol!) are then added per 10 ml of retentate volume and the mixture is incubated under N2 at 37° C. for 72 h. […]
To test the CETP activity, the transfer of ^3 H-cholesterol ester from human HD lipoproteins to biotinylated LD lipoproteins is measured.
The reaction is ended by addition of streptavidin-SPA®beads (Amersham) and the transferred radioactivity is determined directly in a liquid scintillation counter.
In the test mixture, 10 μl of HDL-^3 H-cholesterol ester (~50,000 cpm) are incubated at 37° C. for 18 h with 10 μl of biotin-LDL (Amersham) in 50 mM Hepes/0.15 M NaCl/0.1% bovine serum albumin/0.05% NaN3 pH 7.4 with 10 μl of CETP (1 mg/ml) and 3 μl of solution of the substance to be tested (dissolved in 10% DMSO/1% RSA). 200 μl of the SPA-streptavidin bead solution (TRKQ 7005) are then added, the mixture is incubated further for 1 h with shaking and then measured in the scintillation counter. […]

The next assay has as its system HDL cholesterol. Briefly: In vivo activity: oral action on lipoproteins (HDL rise) in hamsters. To be noted: Dose 2 × 10 mg/kg, hamster, up to 24 hours. More on the design: species or system Syrian golden hamsters. The method, then: In Vivo Activity of the Compounds According to the Invention
In experiments to determine the oral action on lipoproteins and triglycerides, test substance dissolved in DMSO and 0.5% Tylose suspended by means of a stomach tube are administered orally to Syrian golden hamsters from in-house breeding. To determine the CETP activity, blood (about 250 μl) is taken by retro-orbital puncture before the start of the experiment. The test substances are then administered orally by means of a stomach tube. The control animals receive identical volumes of solvents without test substance. The feed is then withdrawn from the animals and blood is taken at various times--up to 24 hours after substance administration--by puncture of the retro-orbital venous plexus.
Clotting is ended by incubation at 4° C. overnight, then centrifugation at 6000×g is carried out for 10 minutes. In the serum thus obtained, the content of cholesterol and triglycerides is determined with the aid of modified commercially available enzyme tests (cholesterol enzymatic 14366 Merck, triglycerides 14364 Merck). Serum is suitably diluted using physiological saline solution.
100 μl of serum dilution are mixed with 100 μl of […] in 96-hole plates and incubated at room temperature for 10 minutes. The optical density is then determined at a wavelength of 492 nm using an automatic plate-reading apparatus. The triglyceride or cholesterol concentration contained in the samples is determined with the aid of a standard curve measured in parallel.
The determination of the content of HDL cholesterol is carried out according to the manufacturer's instructions after precipitation of the ApoB-containing lipoproteins by means of a reagent mixture (Sigma 352-4 HDL cholesterol reagent).

The next assay deals with CETP. The assay can be described thus: Ex vivo activity: CETP activity in serum of treated hamsters. Details: species or system Syrian golden hamsters. The following applies: hamster serum; for ED50 (ex vivo activity): up to 24 hours after administration. The method, then:
Ex Vivo Activity of the Compounds According to the Invention
Syrian golden hamsters from in-house breeding are anaesthetized after fasting for 24 hours (0.8 mg/kg of atropine, 0.8 mg/kg of Ketavet® s.c., 30' later 50 mg/kg of Nembutal i.p.). The jugular vein is then exposed and cannulated. The test substance is dissolved in a suitable solvent (as a rule Adalat placebo solution: 60 g of glycerol, 100 ml of H2 O, PEG-400 to 1000 ml) and administered to the animals via a PE catheter inserted in the jugular vein. The control animals receive the same volume of solvent without test substance. The vein is then tied off and the wound is closed. The administration of the test substances can also be carried out p.o., by orally administering the substances dissolved in DMSO and suspended in 0.5% Tylose by means of a stomach tube. The control animals receive identical volumes of solvent without test substance.
After various times--up to 24 hours after administration--blood (about 250 μl) is taken from the animals by puncture of the retro-orbital venous plexus. Clotting is ended by incubation at 4° C. overnight, then centrifugation is carried out at 6000×g for 10 minutes. In the serum thus obtained, CETP activity is determined by the modified CETP test. As for the CETP test described above, the transfer of ^3 H-cholesterol ester from HD lipoproteins to biotinylated LD lipoproteins is measured.
The reaction is ended by addition of Streptavidin-SPA® beads (Amersham) and the transferred radioactivity is determined directly in the liquid scintillation counter.
The test mixture is carried out as described under "CETP test". For the testing of the serum, only 10 μl of CETP are replaced by 10 μl of the corresponding serum samples. As controls, corresponding incubations with sera of untreated animals are used.
The activity transferred in the control mixtures with control sera is rated as 100% transfer. The substance concentration at which this transfer is reduced to a half is indicated as the ED50 value.

The subject of another assay is transgenic hCETP mice. Briefly: In vivo activity in transgenic hCETP mice. The following applies: 100 ppm in the feed; one week. As to the method:
In Vivo Activity in Transgenic hCETP Mice
Transgenic mice from in-house breeding (Dinchuck, Hart, Gonzalez, Karmann, Schmidt, Wirak; BBA (1995), 1295, 301) were administered the substances to be tested in the feed. Before the start of the experiment, blood was taken retro-orbitally from the mice in order to determine cholesterol and triglycerides in the serum. The serum was obtained as described above for hamsters by incubation at 4° C. overnight and subsequent centrifugation at 6000×g. After one week, blood was again taken from the mice in order to determine lipoproteins and triglycerides. The change in the parameters measured is expressed as a percentage change compared with the starting value.

The compound `OC(c1ccc(Cl)c(C(F)(F)F)c1)c1c(C2CCCC2)nc2c(c1-c1ccc(F)cc1)C(O)c1ccccc1-2` (stereo not drawn) [Example 22] had an IC50 in assay [1] of 240 nM.

Regarding `OC1c2ccccc2-c2nc(C3CCCC3)c(C(F)c3ccc(C(F)(F)F)cc3)c(-c3ccc(F)cc3)c21` (stereo not drawn) [Example 18], in the assay with HDL cholesterol, the “% HDL rise” value came out at 3.3%.

Regarding `O=C1c2cccc(F)c2-c2nc(C3CCCC3)c(C(F)c3ccc(C(F)(F)F)cc3)c(-c3ccc(F)cc3)c21` (stereo not drawn) [Example 29], in the assay on CETP, the “% Inhibition at 10 mg/kg” value is reported as 17.2% and the “ED50 (ex vivo activity)” value is more than 10 mg/kg.

`CC(C)c1nc2c(c(-c3ccc(F)cc3)c1C(F)c1ccc(C(F)(F)F)cc1)C(O)c1ccccc1-2` (stereo not drawn) [Example 14] yielded an IC50 in assay [1] of 60 nM. In the assay with CETP, the “% Inhibition at 10 mg/kg” value worked out at 64.0% and the “ED50 (ex vivo activity)” value is given as less than 10 mg/kg. In the assay with transgenic hCETP mice, the “HDL (percentage change compared with the starting value)” value is 22.0%, the “LDL (percentage change compared with the starting value)” value is listed as -10.5% and the “Triglyceride (percentage change compared with the starting value)” value is -9.7%.

`CC(C)c1nc2c(c(-c3ccc(F)cc3)c1C(F)c1ccc(C(F)(F)F)cc1)C(O)c1cc(Cl)c(Cl)cc1-2` (stereo not drawn) [Example 27]: the IC50 in assay [1] is 300 nM.

For `O=C(c1ccc(C(F)(F)F)cc1)c1c(C2CCCC2)nc2c(c1-c1ccc(F)cc1)C(O)c1ccccc1-2` (stereo not drawn) [Example 19], in the assay with CETP, the “% Inhibition at 10 mg/kg” value amounted to 46.0% and the “ED50 (ex vivo activity)” value is more than 10 mg/kg. Also, the “% HDL rise” value with HDL cholesterol was determined as 17.1%.

Regarding `OC1c2ccccc2-c2nc(C3CCCC3)c(Cc3ccc(C(F)(F)F)cc3)c(-c3ccc(F)cc3)c21` (stereo not drawn) [Example 20], in the assay on HDL cholesterol, the “% HDL rise” value is recorded as 11.14%.
